From BindingDB's records for doi:10.1021/jm801654y (Harvard Medical School, 2009)

biological target: T1, Histone deacetylase (Plasmodium falciparum (isolate 3D7), UniProt Q7K6A1); assay: pfHDAC-1 Enzyme Assay; settings: pH 7.5; 23 °C
T1 sequence (Q7K6A1 whole entry): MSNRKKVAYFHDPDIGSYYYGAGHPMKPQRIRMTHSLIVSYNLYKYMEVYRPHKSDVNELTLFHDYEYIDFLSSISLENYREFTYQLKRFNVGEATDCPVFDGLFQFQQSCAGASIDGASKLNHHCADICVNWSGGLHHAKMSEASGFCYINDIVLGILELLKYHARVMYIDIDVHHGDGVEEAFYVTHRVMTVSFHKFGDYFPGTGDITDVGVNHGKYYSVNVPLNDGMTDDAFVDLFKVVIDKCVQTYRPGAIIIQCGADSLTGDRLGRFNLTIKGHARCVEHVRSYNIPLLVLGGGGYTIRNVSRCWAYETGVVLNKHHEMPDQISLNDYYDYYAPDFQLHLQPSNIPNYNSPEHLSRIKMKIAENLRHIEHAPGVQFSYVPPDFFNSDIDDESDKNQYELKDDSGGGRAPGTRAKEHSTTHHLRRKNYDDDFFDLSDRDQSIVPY
Method: Recombinant pfHDAC-1 was assayed with substrate in the presence of test compound. […] The reaction was allowed to proceed at room temperature for 15 hrs in sealed plates to minimize evaporation. […] Fluorescence was monitored after 1 hr at excitation and emission wavelengths of 360 and 460 nm, respectively. Kinetic constants were calculated by non-linear regression fitting of the data to the Michaelis-Menten equation. Kinetic and inhibition values reported are the mean of three determinations +/- standard deviation.

IC50	SMILES
> 10 µM	O=C1CCc2c(ccc3ccccc23)O1 [1,2-Dihydro-3H-naphtho[2,1-b]pyran-3-one]
0.059 µM	O=C(CCCCCC(=O)NN=Cc1cccc(O)c1)NO [benzylidenehydrazine derivative, 8]
0.11 µM	O=C(CCCCCCC(=O)NN=Cc1cc(O)ccc1O)NO [benzylidenehydrazine derivative, 9]
0.02 µM	O=C(CCCCCC(=O)NN=Cc1cc2c(cc1Br)OCO2)NO [benzylidenehydrazine derivative, 10]
0.043 µM	O=C(CCCCCCC(=O)NN=Cc1c(O)cc(O)cc1O)NO [benzylidenehydrazine derivative, 11]
0.022 µM	COc1ccc(Br)c(C=NNC(=O)CCCCCC(=O)NO)c1 [benzylidenehydrazine derivative, 12]
0.037 µM	CN(C)c1ccc(C=NNC(=O)CCCCCC(=O)NO)c(O)c1 [benzylidenehydrazine derivative, 13]
0.041 µM	O=C(CCCCCC(=O)NN=Cc1c(O)ccc2ccccc12)NO [benzylidenehydrazine derivative, 14]
0.049 µM	O=C(CCCCCC(=O)NN=Cc1cc(O)ccc1Br)NO [benzylidenehydrazine derivative, 15]
0.037 µM	O=C(CCCCCC(=O)NN=Cc1ccccc1Br)NO [benzylidenehydrazine derivative, 16]
0.059 µM	COc1cc(C=NNC(=O)CCCCCC(=O)NO)c(Br)cc1O [benzylidenehydrazine derivative, 17]
0.09 µM	O=C(CCCCCC(=O)NN=Cc1ccccc1Cl)NO [benzylidenehydrazine derivative, 18]
0.015 µM	O=C(CCCCCC(=O)NN=Cc1ccc(-n2ccnc2)cc1)NO [benzylidenehydrazine derivative, 19]
0.036 µM	O=C(CCCCCC(=O)NN=Cc1cccnc1Br)NO [benzylidenehydrazine derivative, 20]
0.106 µM	O=C(CCCCC(=O)NN=Cc1ccc(O)cc1Br)NO [benzylidenehydrazine derivative, 21]
0.089 µM	O=C(CCCCC(=O)NN=Cc1cc(O)ccc1Br)NO [benzylidenehydrazine derivative, 22]
0.059 µM	COc1cc(C=NNC(=O)CCCCC(=O)NO)c(Br)cc1O [benzylidenehydrazine derivative, 23]
0.045 µM	O=C(CCCCC(=O)NN=Cc1ccc(B(O)O)cc1)NO [benzylidenehydrazine derivative, 24]
